Results published in patent publication US20240350493A1 (Kadmon Corporation, LLC, priority 2022, published 2024).
Read-outs that look alike come from different tables or passages of the source.

Assays:
[1] = target: human serum albumin (Homo sapiens, UniProt P02768); test: protein binding in vitro; format: in vitro ADME
[2] = test system: pregnant rabbits; test: embryo-fetal developmental study in rabbits; settings: rabbit
[3] = target: P-gp (Homo sapiens, UniProt P08183); test: transporter substrate, in vitro; format: in vitro ADME
[4] = test system: rat bone marrow; test: in vivo rat bone marrow micronucleus assay
[5] = relative bioavailability/food effect study, tablet and capsule (KD025-106); format: in vivo, human; settings: for AUC(0-t) / AUC(0-inf) / Cmax / Tmax / half-life: male, human, plasma, oral, 200 mg
Method: Both studies were single-center, open-label, randomized, single dose crossover studies in healthy males.
In the second, relative bioavailability/food effect study, both the marketed tablets and earlier formulation capsules were investigated.
For Treatments B and C, before dosing, subjects consumed a high-fat breakfast consisting of a hash brown, bacon, fried egg, white bread, and 240 mL of full fat milk over 25 minutes. […] All subjects were to receive each treatment, with at least a 6-day washout between each period. Water was permitted ad libitum in all study periods, besides for 1 hour pre-and post-dose.
In both studies, serial blood samples for PK analysis were collected at pre-dose and 1, 2, 4, 6, 8, 12, 16, 24, and 36 hours post-dose. An additional sample at 30 hours post-dose was collected in the first study; additional samples were collected 3, 5, and 48 hours post-dose in the second study. Blood samples (5-6 mL per sample) were collected in K3EDTA tubes on ice and were processed within 30 minutes of collection, then frozen at approximately-70 to −80° C. shortly after collection.
Sample preparation was performed by protein precipitation.
Statistical analyses were performed in SAS using the PROC MIXED procedure and the Restricted Maximum Likelihood estimation method. In both studies, the presence of a food effect was evaluated by a formal statistical analysis on natural log-transformed AUC and Cmax using mixed effect modeling techniques. The model included treatment, period, and sequence as fixed effects and subject nested within sequence as a random effect. Adjusted geometric mean ratios (GMRs) and their 90% confidence intervals (CIs) were calculated for fed (test) versus fasted (reference) treatments. The absence of a food effect was to be concluded if the 90% CI was within the bioequivalence limits of 80.00 to 125.00%.
To assess relative bioavailability between formulations in the second study, the same analysis was performed for tablets (test) versus capsules (reference), both in the fed state. For both studies, all subjects who received at least one dose of study drug and had post-dose PK data available were included in the PK population

[6] = test system: pregnant rabbits; settings: female, rabbit, in vivo, po
[7] = test system: dogs; test: general toxicology studies, dogs; format: in vivo, dog
[8] = target: UGT1A1 (Homo sapiens, UniProt P22309); test: enzyme inhibition, in vitro; format: in vitro ADME
[9] = 200 mg tablet, high-fat breakfast

human serum albumin, sequence (P02768 25-609): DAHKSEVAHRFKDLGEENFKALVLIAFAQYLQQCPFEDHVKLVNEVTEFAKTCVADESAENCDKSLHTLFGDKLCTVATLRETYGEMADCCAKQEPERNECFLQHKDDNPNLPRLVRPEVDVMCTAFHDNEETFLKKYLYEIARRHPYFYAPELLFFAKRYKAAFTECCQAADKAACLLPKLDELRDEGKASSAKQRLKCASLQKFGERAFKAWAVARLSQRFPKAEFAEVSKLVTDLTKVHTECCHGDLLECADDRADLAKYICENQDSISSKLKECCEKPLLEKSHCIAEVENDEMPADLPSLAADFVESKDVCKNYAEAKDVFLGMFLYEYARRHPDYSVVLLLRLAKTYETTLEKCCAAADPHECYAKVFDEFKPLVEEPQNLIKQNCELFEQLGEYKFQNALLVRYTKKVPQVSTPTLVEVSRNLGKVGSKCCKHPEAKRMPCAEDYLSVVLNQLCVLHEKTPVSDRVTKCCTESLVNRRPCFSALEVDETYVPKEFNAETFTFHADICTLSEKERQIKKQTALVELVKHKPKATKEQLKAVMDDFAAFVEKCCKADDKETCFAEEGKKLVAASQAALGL
UGT1A1, sequence (P22309 26-533): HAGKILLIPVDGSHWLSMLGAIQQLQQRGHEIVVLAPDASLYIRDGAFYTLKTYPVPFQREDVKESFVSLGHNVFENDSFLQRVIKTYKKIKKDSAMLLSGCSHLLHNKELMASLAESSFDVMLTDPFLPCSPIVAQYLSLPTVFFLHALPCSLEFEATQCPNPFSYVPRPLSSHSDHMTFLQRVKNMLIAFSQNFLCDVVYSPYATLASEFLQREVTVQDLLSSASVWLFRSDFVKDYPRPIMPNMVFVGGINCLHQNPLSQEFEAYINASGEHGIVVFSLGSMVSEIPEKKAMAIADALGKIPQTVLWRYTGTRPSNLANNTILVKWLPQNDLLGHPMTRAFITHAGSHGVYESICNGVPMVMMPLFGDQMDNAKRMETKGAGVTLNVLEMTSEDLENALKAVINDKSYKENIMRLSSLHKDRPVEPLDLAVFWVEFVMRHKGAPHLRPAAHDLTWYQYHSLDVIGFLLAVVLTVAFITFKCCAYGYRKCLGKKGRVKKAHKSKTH
P-gp, sequence (P08183 whole entry): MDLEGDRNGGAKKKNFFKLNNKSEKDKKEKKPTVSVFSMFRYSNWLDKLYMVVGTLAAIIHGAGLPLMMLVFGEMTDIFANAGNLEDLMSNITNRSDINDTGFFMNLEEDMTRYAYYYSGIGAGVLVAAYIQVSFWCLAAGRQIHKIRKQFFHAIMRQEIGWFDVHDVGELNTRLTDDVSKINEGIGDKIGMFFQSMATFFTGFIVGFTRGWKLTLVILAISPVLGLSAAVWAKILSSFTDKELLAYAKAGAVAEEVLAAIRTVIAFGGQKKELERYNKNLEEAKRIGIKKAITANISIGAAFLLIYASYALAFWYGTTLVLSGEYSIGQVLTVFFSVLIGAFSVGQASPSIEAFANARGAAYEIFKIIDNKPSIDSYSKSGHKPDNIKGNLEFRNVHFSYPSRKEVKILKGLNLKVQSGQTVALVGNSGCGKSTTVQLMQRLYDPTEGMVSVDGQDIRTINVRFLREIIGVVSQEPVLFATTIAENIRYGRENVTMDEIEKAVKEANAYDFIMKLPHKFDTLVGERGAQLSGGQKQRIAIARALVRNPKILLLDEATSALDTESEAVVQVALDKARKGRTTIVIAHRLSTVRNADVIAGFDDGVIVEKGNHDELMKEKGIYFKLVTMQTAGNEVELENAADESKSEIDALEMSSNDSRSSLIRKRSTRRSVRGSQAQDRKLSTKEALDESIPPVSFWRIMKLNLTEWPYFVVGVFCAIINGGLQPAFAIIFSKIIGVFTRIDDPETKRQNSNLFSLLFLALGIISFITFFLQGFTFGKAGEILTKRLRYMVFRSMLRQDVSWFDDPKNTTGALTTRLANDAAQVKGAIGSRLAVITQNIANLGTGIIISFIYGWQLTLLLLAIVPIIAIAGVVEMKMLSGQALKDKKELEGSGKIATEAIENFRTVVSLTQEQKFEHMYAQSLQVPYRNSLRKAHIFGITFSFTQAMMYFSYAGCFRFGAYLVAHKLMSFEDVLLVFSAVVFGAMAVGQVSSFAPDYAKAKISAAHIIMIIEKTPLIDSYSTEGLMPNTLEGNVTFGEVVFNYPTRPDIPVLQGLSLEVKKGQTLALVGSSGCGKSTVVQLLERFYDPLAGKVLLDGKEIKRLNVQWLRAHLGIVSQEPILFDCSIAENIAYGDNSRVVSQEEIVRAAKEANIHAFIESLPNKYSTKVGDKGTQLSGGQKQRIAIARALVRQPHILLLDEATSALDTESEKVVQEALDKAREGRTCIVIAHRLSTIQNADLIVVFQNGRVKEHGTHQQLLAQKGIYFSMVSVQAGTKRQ

With `CC(C)NC(=O)COc1cccc(-c2nc(Nc3ccc4[nH]ncc4c3)c3ccccc3n2)c1` [Belumosudil, 2-{3-[4-(1H-indazol-5-ylamino)-2-quinazolinyl]phenoxy}-N-(propan-2-yl) acetamide] the “binding to human serum albumin” value [1] was 99.9%, the “maternal exposures (AUC) with adverse developmental outcomes, times human exposure at recommended dose” value [2] was ≥ 0.07 times and the P-gp substrate [3] was “substrate”. The genotoxicity [4] was “not genotoxic”, the “reduction of inter-subject variability in exposure with food” value ([5]; 200 mg tablet) was “approximately 60%” and the “AUC% extrap, arithmetic mean (SD)” value ([5]; 200 mg tablet, fasted) was 8.38 (9.05) %. For the same molecule, the “AUC% extrap, geometric mean (geometric CV %)” value ([5]; 200 mg tablet, fasted) was 6.02 (90.8); %, the “AUC% extrap, arithmetic mean (SD)” value ([5]; 200 mg tablet, fed) was 1.71 (0.71) % and the “AUC% extrap, geometric mean (geometric CV %)” value ([5]; 200 mg tablet, fed) was 1.55 (50.3); %. The “AUCinf fed as % of fasted” value [5, 9] was 180%, the “Cmax fed as % of fasted” value [5, 9] was 225% and the AUC(0-t) ([5]; 200 mg tablet, fasted, read-out: AUC0-24, arithmetic mean (SD)) was 5.4 µg·h/mL. For the same molecule, the AUC(0-t) ([5]; 200 mg tablet, fasted, read-out: AUC0-24, geometric mean (geometric CV %)) was 4.25 µg·h/mL, the AUC(0-inf) ([5]; 200 mg tablet, fasted, read-out: AUCinf, arithmetic mean (SD)) was 6.67 µg·h/mL and the AUC(0-inf) ([5]; 200 mg tablet, fasted, read-out: AUCinf, geometric mean (geometric CV %)) was 4.91 µg·h/mL. It also gave an AUC(0-t) ([5]; 200 mg tablet, fasted, read-out: AUClast, arithmetic mean (SD)) of 5.83 µg·h/mL, an AUC(0-t) ([5]; 200 mg tablet, fasted, read-out: AUClast, geometric mean (geometric CV %)) of 4.52 µg·h/mL and a Cmax ([5]; 200 mg tablet, fasted, read-out: Cmax, arithmetic mean (SD)) of 1.11 µg/mL. It also gave a Cmax ([5]; 200 mg tablet, fasted, read-out: Cmax, geometric mean (geometric CV %)) of 0.821 µg/mL, a Tmax ([5]; 200 mg tablet, fasted, read-out: Tmax, median (range)) of 2 h and a half-life ([5]; 200 mg tablet, fasted, read-out: t1/2, arithmetic mean (SD) (converted)) of 12.2 h. The half-life ([5]; 200 mg tablet, fasted, read-out: t1/2, geometric mean (geometric CV %) (converted)) was 11.2 h, the AUC(0-t) ([5]; 200 mg tablet, fed, read-out: AUC0-24, arithmetic mean (SD)) was 10.6 µg·h/mL and the AUC(0-t) ([5]; 200 mg tablet, fed, read-out: AUC0-24, geometric mean (geometric CV %)) was 9.58 µg·h/mL. For the same molecule, the AUC(0-inf) ([5]; 200 mg tablet, fed, read-out: AUCinf, arithmetic mean (SD)) was 11.3 µg·h/mL, the AUC(0-inf) ([5]; 200 mg tablet, fed, read-out: AUCinf, geometric mean (geometric CV %)) was 10.1 µg·h/mL and the AUC(0-t) ([5]; 200 mg tablet, fed, read-out: AUClast, arithmetic mean (SD)) was 10.8 µg·h/mL. For the same molecule, the AUC(0-t) ([5]; 200 mg tablet, fed, read-out: AUClast, geometric mean (geometric CV %)) was 9.75 µg·h/mL, the Cmax ([5]; 200 mg tablet, fed, read-out: Cmax, arithmetic mean (SD)) was 2.32 µg/mL and the Cmax ([5]; 200 mg tablet, fed, read-out: Cmax, geometric mean (geometric CV %)) was 2.1 µg/mL. The Tmax ([5]; 200 mg tablet, fed, read-out: Tmax, median (range)) was 2.5 h, the half-life ([5]; 200 mg tablet, fed, read-out: t1/2, arithmetic mean (SD) (converted)) was 7.59 h and the half-life ([5]; 200 mg tablet, fed, read-out: t1/2, geometric mean (geometric CV %) (converted)) was 6.98 h. The Tmax ([5]; 200 mg tablet, read-out: delay in Tmax with fed administration) was 0.5 h, the “exposure (Cmax and AUC) higher for tablet versus capsule” value ([5]; single dose 200 mg, fed state) was 17-19% and the “doses with embryo-fetal effects” value [6] was ≥ 50 mg/kg/day. The “doses with maternal toxicity (body weight loss and mortality)” value [6] was ≥ 125 mg/kg/day, the “dose with spermatozoa degeneration” value [7] was 35 mg/kg/day and the UGT1A1 inhibition [8] was “inhibitor”.
